Test results reported in patent US20100267561A1, “HERBICIDAL PYRIDAZINONE DERIVATIVES” (priority 2007, published 2010).

Assays:
Test in all cases: Test B pre-/postemergence plant response
Assay type in all cases: in vivo
[1] = test system: Italian ryegrass (Lolium multiflorum); settings: for Ryegrass, Italian plant response rating: 8 g ai/ha
Procedure, shortened: (§1)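 Seeds were sown and sprayed preemergence, while plants at 2 to 18 cm (1- to 4-leaf stage) got postemergence sprays. Compounds were formulated in a non-phytotoxic solvent mixture with surfactant. After 13 to 15 days in a greenhouse, injury was rated visually against untreated controls, 0 (no effect) to 100 (complete control).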

[2] = test system: Russian thistle (Salsola iberica); settings: Preemergence
Procedure, shortened: as §1

[3] = test system: blackgrass (Alopecurus myosuroides); settings: for Plant response rating, Blackgrass: Postemergence
Procedure, shortened: as §1

[4] = test system: common ragweed (Ambrosia elation); settings: for Ragweed plant response rating: 8 g ai/ha
Procedure, shortened: as §1

[5] = test system: eastern black (E.B.) nightshade (Solanum ptycanthum); settings: Preemergence
Procedure, shortened: as §1

[6] = test system: giant foxtail (Setaria faberii); settings: for Foxtail, Giant plant response rating: 8 g ai/ha
Procedure, shortened: as §1

[7] = test system: goosegrass (Eleusine indica); settings: for Goosegrass plant response rating: 8 g ai/ha
Procedure, shortened: as §1

[8] = test system: johnsongrass (Sorghum halepense); settings: for Johnsongrass plant response rating: 8 g ai/ha
Procedure, shortened: as §1

[9] = test system: kochia (Kochia scoparia); settings: for Plant response rating, Kochia: Postemergence
Procedure, shortened: as §1

[10] = test system: lambsquarters (Chenopodium album); settings: for Lambsquarters plant response rating: 8 g ai/ha
Procedure, shortened: as §1

[11] = test system: pigweed (Amaranthus retroflexus); settings: for Pigweed plant response rating: 8 g ai/ha
Procedure, shortened: as §1

[12] = test system: soybean (Glycine max)
Procedure, shortened: as §1

[13] = test system: woolly cupgrass (Eriochloa villosa); settings: for Cupgrass, Woolly plant response rating: 8 g ai/ha
Procedure, shortened: as §1

[14] = Postemergence, 16 g ai/ha, scale 0 to 100
[15] = Postemergence, 31 g ai/ha, scale 0 to 100, 0 no effect, 100 complete control
[16] = Postemergence, 62 g ai/ha, scale 0 to 100, 0 no effect, 100 complete control
[17] = Preemergence, 16 g ai/ha, scale 0 to 100 (0 no effect, 100 complete control)
[18] = Preemergence, 31 g ai/ha, 0 to 100 scale, 0 no effect, 100 complete control
[19] = Preemergence, 62 g ai/ha, scale 0 to 100
[20] = 16 g ai/ha, scale 0 to 100 (0 no effect, 100 complete control)
[21] = 31 g ai/ha, 0 to 100 scale, 0 no effect, 100 complete control
[22] = 8 g ai/ha, postemergence, 0-100 scale
[23] = 31 g ai/ha, scale 0 to 100, 0 no effect, 100 complete control
[24] = 62 g ai/ha, scale 0 to 100, 0 no effect, 100 complete control

SMILES: Cn1ncc(O)c(-c2nn(-c3ccc(Cl)cc3)cc2Cl)c1=O [Compound 28]
- Ryegrass, Italian plant response rating ([1]; postemergence, 0-100 scale): 40
- Plant response rating, Ryegrass, Italian [1, 14]: 55
- Plant response rating, Ryegrass, Italian [1, 15]: 55
- Plant response rating, Ryegrass, Italian [1, 16]: 98
- Plant response rating, Ryegrass, Italian [1, 17]: 80
- Plant response rating, Ryegrass, Italian [1, 18]: 100
- Plant response rating, Ryegrass, Italian [1, 19]: 100
- Ryegrass, Italian plant response rating ([1]; Preemergence, scale 0 to 100): 0
- Plant response rating, Russian Thistle [2, 20]: 0
- Plant response rating, Russian Thistle [2, 21]: 0
- Plant response rating, Russian Thistle ([2]; 62 g ai/ha, scale 0 to 100): 0
- Russian Thistle plant response rating ([2]; 8 g ai/ha, scale 0 to 100): 0
- Blackgrass plant response rating [3, 22]: 60
- Plant response rating, Blackgrass ([3]; 16 g ai/ha, scale 0 to 100): 70
- Plant response rating, Blackgrass [3, 23]: 95
- Plant response rating, Blackgrass [3, 24]: 100
- Ragweed plant response rating ([4]; postemergence, 0-100 scale): 0
- Plant response rating, Ragweed [4, 14]: 0
- Plant response rating, Ragweed [4, 15]: 0
- Plant response rating, Ragweed [4, 16]: 0
- Plant response rating, Ragweed [4, 17]: 0
- Plant response rating, Ragweed [4, 18]: 0
- Plant response rating, Ragweed [4, 19]: 0
- Ragweed plant response rating ([4]; Preemergence, scale 0 to 100): 0
- Plant response rating, Nightshade, E. B. [5, 20]: 0
- Plant response rating, Nightshade, E. B. [5, 21]: 0
- Plant response rating, Nightshade, E. B. ([5]; 62 g ai/ha, scale 0 to 100): 0
- Nightshade, E. B. plant response rating ([5]; 8 g ai/ha, scale 0 to 100): 0
- Foxtail, Giant plant response rating ([6]; postemergence, 0-100 scale): 65
- Plant response rating, Foxtail, Giant [6, 14]: 80
- Plant response rating, Foxtail, Giant [6, 15]: 95
- Plant response rating, Foxtail, Giant [6, 16]: 100
- Plant response rating, Foxtail, Giant [6, 17]: 98
- Plant response rating, Foxtail, Giant [6, 18]: 100
- Plant response rating, Foxtail, Giant [6, 19]: 100
- Foxtail, Giant plant response rating ([6]; Preemergence, scale 0 to 100): 60
- Goosegrass plant response rating ([7]; postemergence, 0-100 scale): 65
- Plant response rating, Goosegrass [7, 14]: 75
- Plant response rating, Goosegrass [7, 15]: 80
- Plant response rating, Goosegrass [7, 16]: 90
- Plant response rating, Goosegrass [7, 17]: 100
- Plant response rating, Goosegrass [7, 18]: 100
- Plant response rating, Goosegrass [7, 19]: 100
- Goosegrass plant response rating ([7]; Preemergence, scale 0 to 100): 80
- Johnsongrass plant response rating ([8]; postemergence, 0-100 scale): 20
- Plant response rating, Johnsongrass [8, 14]: 65
- Plant response rating, Johnsongrass [8, 15]: 75
- Plant response rating, Johnsongrass [8, 16]: 98
- Plant response rating, Johnsongrass [8, 17]: 85
- Plant response rating, Johnsongrass [8, 18]: 98
- Plant response rating, Johnsongrass [8, 19]: 100
- Johnsongrass plant response rating ([8]; Preemergence, scale 0 to 100): 70
- Kochia plant response rating [9, 22]: 0
- Plant response rating, Kochia ([9]; 16 g ai/ha, scale 0 to 100): 0
- Plant response rating, Kochia [9, 23]: 0
- Plant response rating, Kochia [9, 24]: 0
- Lambsquarters plant response rating ([10]; postemergence, 0-100 scale): 0
- Plant response rating, Lambsquarters [10, 14]: 0
- Plant response rating, Lambsquarters [10, 15]: 0
- Plant response rating, Lambsquarters [10, 16]: 0
- Plant response rating, Lambsquarters [10, 17]: 95
- Plant response rating, Lambsquarters [10, 18]: 95
- Plant response rating, Lambsquarters [10, 19]: 98
- Lambsquarters plant response rating ([10]; Preemergence, scale 0 to 100): 80
- Pigweed plant response rating ([11]; postemergence, 0-100 scale): 0
- Plant response rating, Pigweed [11, 14]: 0
- Plant response rating, Pigweed [11, 15]: 0
- Plant response rating, Pigweed [11, 16]: 0
- Plant response rating, Pigweed [11, 17]: 0
- Plant response rating, Pigweed [11, 18]: 0
- Plant response rating, Pigweed [11, 19]: 0
- Pigweed plant response rating ([11]; Preemergence, scale 0 to 100): 0
- Soybean plant response rating [12, 22]: 0
- Plant response rating, Soybean [12, 14]: 0
- Plant response rating, Soybean [12, 16]: 20
- Plant response rating, Soybean [12, 18]: 0
- Plant response rating, Soybean [12, 19]: 0
- Cupgrass, Woolly plant response rating ([13]; postemergence, 0-100 scale): 50
- Plant response rating, Cupgrass, Woolly [13, 14]: 55
- Plant response rating, Cupgrass, Woolly [13, 15]: 95
- Plant response rating, Cupgrass, Woolly [13, 16]: 95
- Plant response rating, Cupgrass, Woolly [13, 17]: 30
- Plant response rating, Cupgrass, Woolly [13, 18]: 98
- Plant response rating, Cupgrass, Woolly [13, 19]: 98
- Cupgrass, Woolly plant response rating ([13]; Preemergence, scale 0 to 100): 0
